Test results from patent publication US11208412B2 (DAEGU-GYEONGBUK MEDICAL INNOVATION FOUNDATION, priority 2017, dated 2021).

Experiments:
Experiment in all cases: Kinase selectivity, DiscoverX scanMAX Kinase assay panel (% control)
Format in all cases: binding
[1] = target: T1, kinases of the scanMAX Kinase assay panel (Homo sapiens, UniProt P10721, V559D); conditions: KIT(V559D); 1 uM
T1 construct: purchased DiscoverX Co. (contract measurement) scanMAX Kinase assay panel
In short: (§1)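 Binding-panel profiling at one concentration, 1 uM in DMSO; values are % of DMSO control after subtracting the positive-control floor. Less than 35% means activity on that kinase.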

[2] = target: T2, kinases of the scanMAX Kinase assay panel (Homo sapiens, UniProt P06241); conditions: FYN; 1 uM
T2 construct: purchased DiscoverX Co. (contract measurement) scanMAX Kinase assay panel
T2 sequence (P06241 whole entry): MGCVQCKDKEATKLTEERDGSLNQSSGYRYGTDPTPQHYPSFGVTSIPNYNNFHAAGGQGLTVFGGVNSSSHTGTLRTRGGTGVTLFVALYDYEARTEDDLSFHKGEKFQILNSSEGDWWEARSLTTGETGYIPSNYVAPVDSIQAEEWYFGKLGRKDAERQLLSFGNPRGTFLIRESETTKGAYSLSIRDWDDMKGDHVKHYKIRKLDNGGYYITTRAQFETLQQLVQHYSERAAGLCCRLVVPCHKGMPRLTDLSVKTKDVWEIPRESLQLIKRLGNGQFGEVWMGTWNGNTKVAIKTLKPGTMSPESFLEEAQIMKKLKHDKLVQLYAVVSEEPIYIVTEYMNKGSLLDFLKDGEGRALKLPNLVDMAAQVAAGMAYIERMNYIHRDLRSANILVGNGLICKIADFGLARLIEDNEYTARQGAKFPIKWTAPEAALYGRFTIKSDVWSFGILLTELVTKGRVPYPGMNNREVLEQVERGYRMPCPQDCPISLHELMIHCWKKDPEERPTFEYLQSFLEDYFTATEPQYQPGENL
In short: as §1

[3] = target: T3, kinases of the scanMAX Kinase assay panel (Homo sapiens, UniProt P53355); conditions: DAPK1; 1 uM
T3 construct: purchased DiscoverX Co. (contract measurement) scanMAX Kinase assay panel
T3 sequence (P53355 whole entry): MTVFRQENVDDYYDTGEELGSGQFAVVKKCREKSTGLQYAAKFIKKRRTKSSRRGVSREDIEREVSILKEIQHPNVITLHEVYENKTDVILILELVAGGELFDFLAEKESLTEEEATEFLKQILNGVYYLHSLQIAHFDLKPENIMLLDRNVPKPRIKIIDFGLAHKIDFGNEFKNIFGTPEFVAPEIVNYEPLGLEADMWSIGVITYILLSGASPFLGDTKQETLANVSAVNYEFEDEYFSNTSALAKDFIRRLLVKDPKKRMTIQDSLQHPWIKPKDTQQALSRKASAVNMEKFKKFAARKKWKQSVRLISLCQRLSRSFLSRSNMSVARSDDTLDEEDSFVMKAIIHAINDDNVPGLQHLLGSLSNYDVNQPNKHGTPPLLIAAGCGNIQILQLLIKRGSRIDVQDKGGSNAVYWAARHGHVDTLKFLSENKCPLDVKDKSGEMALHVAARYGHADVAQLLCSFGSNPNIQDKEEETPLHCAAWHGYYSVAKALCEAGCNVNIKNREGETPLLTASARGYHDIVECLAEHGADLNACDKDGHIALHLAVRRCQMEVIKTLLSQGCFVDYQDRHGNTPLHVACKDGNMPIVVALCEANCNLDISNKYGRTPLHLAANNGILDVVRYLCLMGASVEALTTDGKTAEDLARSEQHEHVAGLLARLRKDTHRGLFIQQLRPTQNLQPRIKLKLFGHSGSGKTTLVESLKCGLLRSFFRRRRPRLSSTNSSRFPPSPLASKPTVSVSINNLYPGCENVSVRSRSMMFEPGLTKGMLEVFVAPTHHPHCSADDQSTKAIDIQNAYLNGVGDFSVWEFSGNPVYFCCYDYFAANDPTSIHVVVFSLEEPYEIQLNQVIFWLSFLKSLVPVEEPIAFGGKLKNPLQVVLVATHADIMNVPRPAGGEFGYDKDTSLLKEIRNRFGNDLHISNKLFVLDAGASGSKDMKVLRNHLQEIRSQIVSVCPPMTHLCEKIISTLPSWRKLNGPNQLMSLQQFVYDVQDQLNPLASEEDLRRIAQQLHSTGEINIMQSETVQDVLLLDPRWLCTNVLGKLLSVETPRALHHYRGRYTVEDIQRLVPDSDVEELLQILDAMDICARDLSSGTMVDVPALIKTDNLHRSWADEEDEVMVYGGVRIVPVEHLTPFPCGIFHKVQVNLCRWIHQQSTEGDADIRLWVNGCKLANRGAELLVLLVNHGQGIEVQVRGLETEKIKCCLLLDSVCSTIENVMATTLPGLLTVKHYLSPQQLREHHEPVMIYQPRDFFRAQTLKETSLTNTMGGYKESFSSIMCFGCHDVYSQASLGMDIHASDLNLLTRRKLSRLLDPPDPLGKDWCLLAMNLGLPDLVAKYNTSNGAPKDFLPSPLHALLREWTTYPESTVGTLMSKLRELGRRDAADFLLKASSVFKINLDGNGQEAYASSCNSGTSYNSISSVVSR
In short: as §1

[4] = target: T4, kinases of the scanMAX Kinase assay panel (Homo sapiens, UniProt P57058); conditions: HUNK; 1 uM
T4 construct: purchased DiscoverX Co. (contract measurement) scanMAX Kinase assay panel
T4 sequence (P57058 1-714): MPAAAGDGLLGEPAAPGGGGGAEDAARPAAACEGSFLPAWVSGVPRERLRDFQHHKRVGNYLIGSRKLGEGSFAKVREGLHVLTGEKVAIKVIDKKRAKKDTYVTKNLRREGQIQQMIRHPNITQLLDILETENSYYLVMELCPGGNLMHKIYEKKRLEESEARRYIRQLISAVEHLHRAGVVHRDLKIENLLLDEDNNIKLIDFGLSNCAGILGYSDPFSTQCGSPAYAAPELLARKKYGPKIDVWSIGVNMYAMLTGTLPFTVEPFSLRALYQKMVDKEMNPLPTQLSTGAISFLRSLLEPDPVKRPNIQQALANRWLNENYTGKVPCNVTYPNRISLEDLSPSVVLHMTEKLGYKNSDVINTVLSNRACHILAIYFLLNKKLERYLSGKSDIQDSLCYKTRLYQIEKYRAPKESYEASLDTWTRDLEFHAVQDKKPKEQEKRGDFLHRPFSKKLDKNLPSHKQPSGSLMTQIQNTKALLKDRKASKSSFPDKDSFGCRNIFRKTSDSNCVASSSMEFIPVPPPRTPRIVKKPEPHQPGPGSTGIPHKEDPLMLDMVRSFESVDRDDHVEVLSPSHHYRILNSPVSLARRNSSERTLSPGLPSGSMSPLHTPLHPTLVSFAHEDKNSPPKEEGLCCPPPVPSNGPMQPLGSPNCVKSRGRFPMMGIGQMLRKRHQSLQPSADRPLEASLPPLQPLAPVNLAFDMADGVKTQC
In short: as §1

[5] = target: T5, kinases of the scanMAX Kinase assay panel (Homo sapiens, UniProt Q8TDR2); conditions: kinase STK35; 1 uM in DMSO
T5 construct: purchased DiscoverX Co. (contract measurement) scanMAX Kinase assay panel
In short: as §1

[6] = target: T6, kinases of the scanMAX Kinase assay panel (Homo sapiens, UniProt P41743); conditions: PRKCI; 1 uM
T6 construct: purchased DiscoverX Co. (contract measurement) scanMAX Kinase assay panel
T6 sequence (P41743 1-596): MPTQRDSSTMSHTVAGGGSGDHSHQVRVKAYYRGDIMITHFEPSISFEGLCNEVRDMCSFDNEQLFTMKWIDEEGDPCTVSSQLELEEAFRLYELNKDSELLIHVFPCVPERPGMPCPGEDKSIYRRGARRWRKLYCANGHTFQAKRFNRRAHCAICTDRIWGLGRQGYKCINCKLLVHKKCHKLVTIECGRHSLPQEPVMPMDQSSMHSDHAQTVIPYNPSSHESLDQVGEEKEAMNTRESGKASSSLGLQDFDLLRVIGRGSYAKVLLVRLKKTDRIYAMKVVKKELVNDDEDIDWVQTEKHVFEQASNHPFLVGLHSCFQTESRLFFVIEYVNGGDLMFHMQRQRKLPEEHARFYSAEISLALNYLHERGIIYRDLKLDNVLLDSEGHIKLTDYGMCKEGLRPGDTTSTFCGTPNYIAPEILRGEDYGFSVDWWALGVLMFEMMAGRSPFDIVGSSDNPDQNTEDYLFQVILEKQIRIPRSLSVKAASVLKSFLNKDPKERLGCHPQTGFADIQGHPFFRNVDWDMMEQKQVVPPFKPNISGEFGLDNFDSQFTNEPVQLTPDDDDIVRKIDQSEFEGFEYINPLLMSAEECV
In short: as §1

[7] = target: T7, kinases of the scanMAX Kinase assay panel (Homo sapiens, UniProt P53671); conditions: LIMK2; 1 uM
T7 construct: purchased DiscoverX Co. (contract measurement) scanMAX Kinase assay panel
T7 sequence (P53671 whole entry): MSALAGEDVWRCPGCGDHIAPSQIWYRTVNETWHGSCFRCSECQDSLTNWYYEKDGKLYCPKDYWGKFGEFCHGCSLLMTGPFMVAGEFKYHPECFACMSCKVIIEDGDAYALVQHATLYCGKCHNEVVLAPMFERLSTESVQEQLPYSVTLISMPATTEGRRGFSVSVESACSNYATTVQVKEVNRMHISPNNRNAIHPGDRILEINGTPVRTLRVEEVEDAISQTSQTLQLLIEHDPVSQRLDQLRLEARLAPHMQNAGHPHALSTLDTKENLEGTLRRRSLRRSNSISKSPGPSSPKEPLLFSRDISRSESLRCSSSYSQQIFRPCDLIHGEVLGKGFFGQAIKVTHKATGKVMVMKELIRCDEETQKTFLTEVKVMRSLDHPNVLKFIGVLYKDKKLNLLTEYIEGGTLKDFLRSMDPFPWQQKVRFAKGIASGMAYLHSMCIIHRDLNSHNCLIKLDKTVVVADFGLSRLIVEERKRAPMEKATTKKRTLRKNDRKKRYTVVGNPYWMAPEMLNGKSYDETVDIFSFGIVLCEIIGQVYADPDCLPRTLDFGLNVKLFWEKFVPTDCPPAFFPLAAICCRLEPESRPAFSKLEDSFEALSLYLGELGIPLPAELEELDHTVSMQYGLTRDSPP
In short: as §1

[8] = target: T8, kinases of the scanMAX Kinase assay panel (Homo sapiens, UniProt P42336, M1043I); conditions: PIK3CA(M1043I); 1 uM
T8 construct: purchased DiscoverX Co. (contract measurement) scanMAX Kinase assay panel
T8 sequence (P42336 whole entry M1043I): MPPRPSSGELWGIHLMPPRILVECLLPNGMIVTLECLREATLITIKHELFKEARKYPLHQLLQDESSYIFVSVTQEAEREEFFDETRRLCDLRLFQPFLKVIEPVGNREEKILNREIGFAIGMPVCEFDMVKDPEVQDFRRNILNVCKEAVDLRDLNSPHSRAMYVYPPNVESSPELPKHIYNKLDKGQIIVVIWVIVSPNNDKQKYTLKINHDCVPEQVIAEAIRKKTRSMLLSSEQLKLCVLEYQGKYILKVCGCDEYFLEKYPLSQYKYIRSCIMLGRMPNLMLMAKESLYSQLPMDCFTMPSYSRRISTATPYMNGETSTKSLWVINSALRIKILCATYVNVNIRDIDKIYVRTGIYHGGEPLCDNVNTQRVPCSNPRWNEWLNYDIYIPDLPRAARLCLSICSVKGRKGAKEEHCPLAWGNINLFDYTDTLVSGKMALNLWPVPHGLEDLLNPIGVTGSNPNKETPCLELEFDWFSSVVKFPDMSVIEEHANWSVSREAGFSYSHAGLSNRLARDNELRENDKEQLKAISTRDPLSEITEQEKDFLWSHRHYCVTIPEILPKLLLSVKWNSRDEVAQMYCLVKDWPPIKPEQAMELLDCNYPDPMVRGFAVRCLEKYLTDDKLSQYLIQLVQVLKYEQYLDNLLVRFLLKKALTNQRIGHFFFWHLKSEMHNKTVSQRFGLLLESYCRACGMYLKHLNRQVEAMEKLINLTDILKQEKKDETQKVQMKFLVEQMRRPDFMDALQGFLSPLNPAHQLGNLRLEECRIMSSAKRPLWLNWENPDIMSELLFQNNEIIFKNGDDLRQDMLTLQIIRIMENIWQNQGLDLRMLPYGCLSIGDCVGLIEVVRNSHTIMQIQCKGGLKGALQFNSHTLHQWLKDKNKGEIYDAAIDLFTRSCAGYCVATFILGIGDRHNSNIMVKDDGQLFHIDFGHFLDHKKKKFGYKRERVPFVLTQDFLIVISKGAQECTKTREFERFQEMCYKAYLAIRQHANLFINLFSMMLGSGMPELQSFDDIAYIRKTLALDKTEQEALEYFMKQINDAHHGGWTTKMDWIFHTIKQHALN
In short: as §1

T1 sequence (P10721 26-976 V559D): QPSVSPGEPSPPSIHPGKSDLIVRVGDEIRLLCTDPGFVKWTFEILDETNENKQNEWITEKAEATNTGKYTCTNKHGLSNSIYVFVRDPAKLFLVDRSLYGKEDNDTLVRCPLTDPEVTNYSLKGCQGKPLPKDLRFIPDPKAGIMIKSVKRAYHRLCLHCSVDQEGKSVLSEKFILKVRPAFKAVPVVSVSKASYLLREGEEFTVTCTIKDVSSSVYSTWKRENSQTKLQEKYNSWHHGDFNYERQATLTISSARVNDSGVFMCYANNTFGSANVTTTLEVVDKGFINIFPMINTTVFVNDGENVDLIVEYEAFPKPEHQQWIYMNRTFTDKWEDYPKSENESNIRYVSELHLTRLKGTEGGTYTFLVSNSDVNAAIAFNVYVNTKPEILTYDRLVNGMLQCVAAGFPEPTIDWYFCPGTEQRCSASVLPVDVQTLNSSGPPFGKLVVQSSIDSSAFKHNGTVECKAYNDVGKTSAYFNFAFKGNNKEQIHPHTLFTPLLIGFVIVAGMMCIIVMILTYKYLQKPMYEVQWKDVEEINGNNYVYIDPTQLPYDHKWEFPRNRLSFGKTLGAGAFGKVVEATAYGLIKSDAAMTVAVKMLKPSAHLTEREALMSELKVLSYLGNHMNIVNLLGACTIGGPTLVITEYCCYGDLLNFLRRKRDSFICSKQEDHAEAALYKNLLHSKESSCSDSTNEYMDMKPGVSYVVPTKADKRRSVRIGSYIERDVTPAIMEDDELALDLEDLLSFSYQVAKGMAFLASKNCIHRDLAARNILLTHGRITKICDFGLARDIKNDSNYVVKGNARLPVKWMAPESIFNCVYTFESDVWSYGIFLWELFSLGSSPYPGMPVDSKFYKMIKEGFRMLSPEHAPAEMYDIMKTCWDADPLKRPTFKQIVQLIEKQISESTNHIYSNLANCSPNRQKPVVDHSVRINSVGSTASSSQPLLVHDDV

Compound | remaining binding at 1 µM [1] | remaining binding at 1 µM [2] | remaining binding at 1 µM [3] | remaining binding at 1 µM [4] | remaining binding at 1 µM [5] | remaining binding at 1 µM [6] | remaining binding at 1 µM [7] | remaining binding at 1 µM [8]
CNc1nc(Nc2ccc(C(=O)N3CCOCC3)cc2OC)nc2[nH]cc(C#N)c12 [Example 1, 2-((2-methoxy-4-(morpholine-4-carbonyl)phenyl)amino)-4-(methylamino)-7H-pyrrolo[2,3-d]pyrimidine-5-carbonitrile] | 38% | 100% | 8.5% | 5.3% | 100% | 96% | 94% | 94%
CC1(Nc2nc(Nc3cnn([C@H]4CCN(C5COC5)C[C@@H]4F)c3Cl)nc3[nH]cc(C#N)c23)CC1 [Example 52, 2-((5-chloro-1-((3S,4S)-3-fluoro-1-(oxetane-3-yl)piperidine-4-yl)-1H-pyrazole-4-yl)amino)((1-methylcyclopropyl)amino)-7H-pyrrolo[2,3-d]pyrimidine-5-carbonitrile] | 0% | 19% | 12% | 51% | 14% | 89% | 65% | 37%
CCNc1nc(Nc2ccc(C(=O)N3CCC(N4CCOCC4)CC3)cc2OC)nc2[nH]cc(C(F)(F)F)c12 [Example 104, (4-((4-(ethylamino)-5-(trifluoromethyl)-7H-pyrrolo[2,3-d]pyrimidine-2-yl)amino)-3-methoxyphenyl)(4-morpholinopiperidine-1-yl)methanone] | 46% | 100% | 49% | 0.7% | 100% | 53% | 99% | 84%
